Patent US20170296629A1, “INHIBITOR OF EXTRACELLULAR TRAP FORMATION IN LEUKOCYTE” (KEIO UNIVERSITY, priority 2014, published 2017)
Ends that are not written are not given here.

Test system: Healthy Individual's Peripheral Blood Neutrophil
Experiment: Inhibition of NET formation in neutrophils pretreated with lactoferrin-derived peptide fragment; DNA concentration in culture supernatant (Picogreen)
Format: cell-based
Conditions: human neutrophils, pretreatment with peptide
Procedure: Effect of Inhibiting NET Formation Stimulation of Healthy Individual's Peripheral Blood Neutrophil by Pretreatment with Lactoferrin-derived Peptide Fragment
For each round of experiment, 15 ml to 20 ml of peripheral blood was collected from a healthy individual by using an EDTA-containing syringe (with a needle of 18 to 22 G). After collecting the blood, in a 15 ml conical tube charged with 3 ml of Mono-Poly Resolving Medium (Cat No. DSBN100, DS Pharma Biochemical Co., Ltd.), 3.5 ml of the whole blood was gently layered over a lower layer of Mono-Poly Resolving Medium. The resultant 15 ml conical tube was centrifuged with a swing centrifuge at room temperature (15 to 30° C.) at 400×g for 20 minutes, and the conical tube was then gently taken out. An uppermost brown plasma layer and a lymphocyte/monocyte layer thereunder were removed with an aspirator or the like. In addition, a transparent layer under the lymphocyte/monocyte layer was removed as much as possible. A pale pink layer under the transparent layer was taken out with a Pasteur pipette, and transferred, for washing neutrophils, to a test tube charged with phosphate buffered saline (PBS(−); 137 mM of sodium chloride, 2.7 mM of potassium chloride, 8.1 mM of disodium hydrogen phosphate dodecahydrate, and 1.47 mM of potassium dihydrogen phosphate). The test tube thus holding the neutrophils was centrifuged at room temperature (15 to 30° C.) at 200×g for 10 minutes. The test tube was taken out, and a supernatant was discarded. To the neutrophils held in the test tube, sterile water at 4° C. was added, and the resultant was allowed to stand still on ice for 30 seconds for hemolyzing erythrocytes mixed therein. After the hemolysis, 45 ml of PBS(−) was added thereto, and the resultant was centrifuged at 200×g for 10 minutes. […]
A culture supernatant was collected, centrifuged at 200×g for 10 minutes, and the thus obtained supernatant was transferred to a fresh microcentrifuge tube. The amount of DNA was measured by using Picogreen dsDNA assay reagent (P11496 Invitrogen) in accordance with the accompanying protocol.

Substance	inhibition of the NET (FIG. 2) (FIG. 2)	inhibition of the NET formation, dependence on amount (FIG. 3)
SEQ ID NO: 6: Bovine lactoferricin; basic peptide obtained by pepsin hydrolysis of bovine lactoferrin, also prepared by PH Japan (MFKCRRWQWRMKKLGAPSITCVRRAF; ends and bridges not checked; cysteine pairing not given here; listed as Bos taurus)	found to have the inhibiting effect	inhibited the NET formation in a volume-dependent manner
SEQ ID NO: 7: Human lactoferricin, basic peptide prepared by PH Japan (GRRRRSVQWCAVSQPEATKCFQWQRNMRKVRGPPVSCIKRDSPIQCIQA; listed as Homo sapiens)		inhibited the NET formation in a volume-dependent manner
